According to article PMC3791872 (Bioscience Reports, 2013):

Tests used:
Mcm2-7 [1] = system: T1, Mcm2-7; assay: ssDNA double filter-binding assay, Mcm2-7; design: species or system Saccharomyces cerevisiae; settings: 1 mM compound, 150 nM helicase
T1 construct: made in house; host or cells: baculovirus-infected insect cells

T4 gp41 = biological target: T2, T4 gp41 (Enterobacteria phage T4, UniProt P04530); assay: T4 gp41 helicase assay; format: biochemical; settings: 1 mM, Figure S3
T2 sequence (P04530 1-475): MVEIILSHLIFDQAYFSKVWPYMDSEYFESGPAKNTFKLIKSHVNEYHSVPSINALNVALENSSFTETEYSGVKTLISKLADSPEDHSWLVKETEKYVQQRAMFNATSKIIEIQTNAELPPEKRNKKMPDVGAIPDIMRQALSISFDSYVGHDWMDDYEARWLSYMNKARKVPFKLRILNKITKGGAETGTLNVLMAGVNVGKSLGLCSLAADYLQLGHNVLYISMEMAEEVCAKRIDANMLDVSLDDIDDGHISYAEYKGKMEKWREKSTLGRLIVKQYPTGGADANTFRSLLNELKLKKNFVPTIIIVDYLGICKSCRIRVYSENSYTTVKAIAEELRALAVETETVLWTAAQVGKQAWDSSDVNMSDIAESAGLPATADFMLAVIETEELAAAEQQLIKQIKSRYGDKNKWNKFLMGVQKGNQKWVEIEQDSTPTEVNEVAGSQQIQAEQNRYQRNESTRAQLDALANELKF
Procedure: Helicase assays were performed essentially as described. Synthetic replication forks were prepared by annealing oligos 233 and 235 [IDT (Coralville), oligo 233 5′(T)40[…]; oligo 235 5′ […](T)40] and then filling in the recessed 3′-end with [α32P]dATP and unlabelled dNTPs using Klenow Fragment. Briefly, reactions ([…]) were performed in 1× helicase assay buffer [20 mM Tris/HCl (pH 7.5), 10 mM MgOAc, 20% (v/v) glycerol, 100 μM EDTA and 5 mM DTT (dithiothreitol)] and contained a final concentration of 1 nM fork substrate, 5 mM ATP, 40 mM creatine phosphate, […] creatine kinase, 33 μg/ml BSA. Reactions containing Mcm2-7 and Mcm467 were supplemented with 200 mM potassium glutamate. Reactions containing SsoMcm were incubated at 65°C, those containing T4 gp41 were incubated for 30 min at 37°C, and all other reactions were incubated at 37°C for 1 h. The products were separated by 10% (w/v) native PAGE, the resulting gels dried and the radioactivity quantified using a Fuji FLA-5100 phosphoimager. Irrespective of the protein used, all helicase assays contained equal molar helicase concentrations (100 nM, assuming in all cases that the active helicase form is hexameric). Steady-state ATP hydrolysis was assayed as published. In short, reactions were set up essentially as in the helicase assay, with minor exceptions. A non-radiolabelled DNA fork was used, helicase concentration was 100 nM (hexamer) the total ATP concentration was 500 μM and included ~0.5 μCi of [α32P]ATP, and the ATP regeneration system was omitted. Reactions were incubated for 1 h at 37°C and stopped by the addition of SDS. ATP was separated from ADP by PEI (polyethyleneimine) thin layer chromatography, and the ratio of ATP:ADP was quantified using a Fuji FLA-5100 phosphoimager. Based on our prior work, conditions were established to ensure that the results shown are within the linear range of the assay. Protein–ssDNA binding was determined with a double filter-binding assay using an ssDNA probe (oligo 826, 5′[…]) that was 5′-radiolabelled using T4 polynucleotide kinase and [γ32P]ATP [16]. For the double filter-binding assay, the helicase concentration was 150 nM (hexamer) and the ssDNA concentration was 4 nM. For all biochemical assays, helicases were preincubated with inhibitors for 20 min at 37°C unless otherwise indicated. […]
against different helicases
Representative helicase activity assays in the presence of the indicated inhibitor were tested, quantiﬁed and standardized as described in the legend to F igures 2 (A) and (B). All helicases were assayed at 100 nM
ﬁnal concentration (hexamer) with inhibitor preincubation prior to ATP […]
F igure S3 Ciproﬂoxacin poor ly inhibits hexameric helicases un- […]
All inhibitors were used at 1 mM ﬁnal concentration. […]

RPE-hTERT cells = assay: Human cell viability, MTS method; format: cell-based; settings: Homo sapiens, 48 h, value (95% CI)
Procedure: Ciproﬂoxacin is an inhibitor of the Mcm2-7 […]
The viability of human cells was assayed using the MTS method
[1]. Brieﬂy, 1 ×10^5 cells of the human non-tumour cell line RPE-hTERT were plated into each well of a 96-well plate and grown in DMEM: F12 containing 10 % (v/v) FBS in 5 % (v/v) CO2 at 37 ◦ C. The next day, the indicated compounds were titrated into media such that the ﬁnal concentration contained 1 % (v/v)
DMSO. As a negative control, media were also prepared that contained 1 % DMSO but lacked compound. After 48 h, the media was removed and replaced with DMEM lacking phenol red but containing Cell Titer 96 Aqueous One Solution Cell Proliferation
Assay (Promega). After 1 h, the A490 nm was measured using a BioRad iMark Microplate Reader (Hercules). Final data reﬂect the average and standard deviation (S.D.) of three replicates at each compound concentration. […]

Wild-type yeast = assay: Yeast growth inhibition, wild-type strain; format: cell-based, Saccharomyces cerevisiae; settings: Figure 4A
Procedure: S. cerevisiae growth inhibition was quantified using an established 96-well assay. Two isogenic W303 tester strains were used (construction details available upon request): UPY675 (matA, ade2-1, ura3-1, his3-11,15, trp1-1, leu2-3,112, can1-100, bar1::hisG, Δerg6::kanMX) and UPY1056 (isogenic to UPY675 but containing mcm4chaos3). Overnight yeast cultures were grown in YPD medium (1% (w/v) yeast extract/2% (w/v) peptone/2% (w/v) glucose), diluted to 0.05 A600, grown to an A600 of 0.1–0.15, divided into aliquots into a 96-well plate, and then treated with inhibitor titrations. Inhibitors were first diluted in pure DMSO, and then added to wells to a final volume of 100 μl containing 2% (v/v) DMSO. Plates were grown without shaking at 30°C for 24 h. Optical density was quantified at 0 and 24 h with a Bio-tek EL800 Universal Microplate reader. Percent relative growth was determined by calculating the change in optical density over 24 h at each concentration relative to a 2% DMSO control.

Mcm2-7 [2] = system: T1, Mcm2-7; assay: Steady-state ATP hydrolysis by Mcm2-7; format: biochemical, Saccharomyces cerevisiae; settings: 1 mM compound, 100 nM hexamer

O=C(O)c1cn(C2CC2)c2cc(N3CCNCC3)c(F)cc2c1=O [Ciprofloxacin, ciprofloxacin, reference compound]
effect on ssDNA binding of Mcm2-7 (Mcm2-7 [1]): only modest effects
inhibition of T4 gp41 helicase (T4 gp41): none of the tested helicases were substantially inhibited
IC50 (RPE-hTERT cells): 240 µM
growth response of wild-type yeast (Wild-type yeast): resistant
effect on ATP hydrolysis of Mcm2-7 (Mcm2-7 [2]): only modest effects
